Converted amounts (≈) assume the structure as drawn.
What was measured:
[1] = target: Human plasma kallikrein (Homo sapiens (Human), UniProt P03952); assay: Determination of the IC50 for plasma kallikrein (fluorogenic substrate H-DPro-Phe-Arg-AFC); assay type: biochemical; settings: class symbols A-D, read-out: IC50 (human PKal)
Procedure, shortened: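 Enzyme from a commercial source was incubated at 25° C. with H-DPro-Phe-Arg-AFC substrate and a range of test compound concentrations. Residual activity was taken as the initial reaction rate, followed by absorbance change at 410 nm, and IC50 values were derived from it.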

[2] = target: Human KLK1 (Homo sapiens (Human), UniProt P06870); assay: Determination of the IC50 for KLK1 (fluorogenic substrate H-DVal-Leu-Arg-AFC); assay type: biochemical
Sequence of Human KLK1 (P06870 25-262): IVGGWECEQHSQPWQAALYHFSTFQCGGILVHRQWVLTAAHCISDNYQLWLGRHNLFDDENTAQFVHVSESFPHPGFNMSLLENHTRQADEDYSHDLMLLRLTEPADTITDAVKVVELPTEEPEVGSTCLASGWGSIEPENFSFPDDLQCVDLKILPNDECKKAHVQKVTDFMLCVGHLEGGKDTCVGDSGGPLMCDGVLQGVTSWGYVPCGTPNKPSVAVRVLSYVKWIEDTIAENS
Procedure, shortened: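 Human KLK1 incubated at 25° C. with fluorogenic substrate H-DVal-Leu-Arg-AFC and a range of test compound concentrations. Residual activity taken as initial reaction rate from absorbance change at 410 nm; IC50 derived from these rates.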

[3] = Solubility after 24 hrs in Fasted State Simulated Intestinal Fluid (FaSSIF); assay type: physicochemical; settings: 24 hrs at 37° C., nominal concentration 1 mg/mL (as free base); for solubility at 24 h: Fasted State Simulated Intestinal Fluid (FaSSIF), thermodynamic from solid
Description: Selected compounds were further screened for solubility in Fasted State Simulated Intestinal Fluid (FaSSIF).
Approximately 1 mg of test compound is accurately weighed into a 2 mL vial. Volumes of the FaSSIF solution (pre-heated to 37° C.) were added to a vial to give a nominal concentration of 1 mg/mL (as free base). The FaSSIF solution was prepared on the day of use. The samples were vortexed before being placed in a Titramax 1000 shaker for 24 hrs at 37° C. and approximately 500 rpm. The samples were transferred to eppendorf tubes and centrifuged at 15,000 g (r.c.f.) for 10 min at 37° C. and analysed for concentration of test compound by LCMS.

[4] = target: Human FXIa (Homo sapiens (Human), UniProt P03951); assay: Determination of the % inhibition for FXIa (fluorogenic substrate Z-Gly-Pro-Arg-AFC; 40 μM or IC50); assay type: biochemical
Sequence of Human FXIa (P03951 388-625): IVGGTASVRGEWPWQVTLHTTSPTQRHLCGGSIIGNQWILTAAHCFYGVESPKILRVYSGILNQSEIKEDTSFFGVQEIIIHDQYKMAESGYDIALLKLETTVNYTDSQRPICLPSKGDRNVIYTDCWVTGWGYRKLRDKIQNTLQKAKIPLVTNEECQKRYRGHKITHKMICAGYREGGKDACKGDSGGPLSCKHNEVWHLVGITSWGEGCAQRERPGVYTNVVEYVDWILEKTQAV
Sequence of Human FXIa (P03951 19-387 partner): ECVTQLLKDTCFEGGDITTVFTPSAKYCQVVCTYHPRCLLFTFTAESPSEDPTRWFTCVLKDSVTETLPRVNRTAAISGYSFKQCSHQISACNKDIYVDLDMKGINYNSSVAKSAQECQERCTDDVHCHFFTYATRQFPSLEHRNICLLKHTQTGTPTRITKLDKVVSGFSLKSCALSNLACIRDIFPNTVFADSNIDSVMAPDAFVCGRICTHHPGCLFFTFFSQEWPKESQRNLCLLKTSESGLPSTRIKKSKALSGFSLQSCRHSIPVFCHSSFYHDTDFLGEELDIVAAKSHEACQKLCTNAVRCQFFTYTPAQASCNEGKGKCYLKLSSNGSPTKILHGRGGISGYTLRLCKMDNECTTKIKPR
Procedure, shortened: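 Human FXIa incubated at 25 °C with fluorogenic substrate Z-Gly-Pro-Arg-AFC and test compound at 40 μM for % inhibition, or a concentration series for IC50. Residual activity taken as initial rate from absorbance change at 410 nm.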

Sequence of Human plasma kallikrein (P03952 391-638): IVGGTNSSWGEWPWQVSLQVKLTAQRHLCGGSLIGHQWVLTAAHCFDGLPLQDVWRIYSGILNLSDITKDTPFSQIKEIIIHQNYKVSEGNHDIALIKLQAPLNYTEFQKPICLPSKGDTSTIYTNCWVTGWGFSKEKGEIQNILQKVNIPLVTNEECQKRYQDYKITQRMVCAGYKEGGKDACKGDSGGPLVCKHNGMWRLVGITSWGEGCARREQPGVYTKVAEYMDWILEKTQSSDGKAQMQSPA
Sequence of Human plasma kallikrein (P03952 20-390 partner): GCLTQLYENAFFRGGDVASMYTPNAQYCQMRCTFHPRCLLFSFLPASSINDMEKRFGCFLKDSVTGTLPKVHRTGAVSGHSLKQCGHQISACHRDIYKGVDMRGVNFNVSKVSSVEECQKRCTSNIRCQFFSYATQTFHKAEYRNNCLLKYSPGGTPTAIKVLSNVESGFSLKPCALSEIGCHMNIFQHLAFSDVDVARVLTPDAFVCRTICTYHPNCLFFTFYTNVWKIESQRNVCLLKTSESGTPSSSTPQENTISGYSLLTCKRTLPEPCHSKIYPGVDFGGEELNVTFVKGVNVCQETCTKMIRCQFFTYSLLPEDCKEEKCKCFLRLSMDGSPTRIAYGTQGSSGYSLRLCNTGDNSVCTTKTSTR

Row | IC50 [1] [µM] | IC50 [2] [µM] | solubility at 24 h [3] [µg/mL] | IC50 [4] [µM] | FASSIF Solubility 24 hrs [3] [µg/mL] | SMILES
1 | < 0.01 | > 40 | 870 (≈ 1480 µM) | > 40 | – | COCc1nn(Cc2ccc3c(c2)CCN(C)C3)cc1C(=O)NCc1c(-n2cnc(C(F)(F)F)n2)ccc(OC)c1F [Example 42, N-({2-fluoro-3-methoxy-6-[3-(trifluoromethyl)-1,2,4-triazol-1-yl]phenyl}methyl)-3-(methoxymethyl)-1-[(2-methyl-3,4-dihydro-1H-isoquinolin-6-yl)methyl]pyrazole-4-carboxamide]
2 | 0.03 to 0.1 | > 40 | 510 (≈ 911 µM) | > 40 | – | COCc1nn(Cc2ccc3c(c2)CCN(C2CC2)C3)cc1C(=O)NCc1c(-n2cc(C)nn2)ccc(OC)c1F [Example 35, 1-[(2-cyclopropyl-3,4-dihydro-1H-isoquinolin-6-yl)methyl]-N-{[2-fluoro-3-methoxy-6-(4-methyl-1,2,3-triazol-1-yl)phenyl]methyl}-3-(methoxymethyl)pyrazole-4-carboxamide]
3 | – | – | 20 (≈ 38.3 µM) | – | – | COCc1nn(Cc2cnc(N3CCCC3)nc2)cc1C(=O)NCc1c(-n2ccnn2)ccc(OC)c1F [RC5, N-{[2-fluoro-3-methoxy-6-(1,2,3-triazol-1-yl)phenyl]methyl}-3-(methoxymethyl)-1-{[2-(pyrrolidin-1-yl)pyrimidin-5-yl]methyl}pyrazole-4-carboxamide, reference compound]
4 | < 0.01 | > 40 | 950 (≈ 1880 µM) | > 40 | – | COc1ccc(-n2cc(C)nn2)c(CNC(=O)c2cn(Cc3ccc4c(c3)CN(C(C)C)C4)nn2)c1F [Example 153, N-{[2-fluoro-3-methoxy-6-(4-methyl-1,2,3-triazol-1-yl)phenyl]methyl}-1-[(2-isopropyl-1,3-dihydroisoindol-5-yl)methyl]-1,2,3-triazole-4-carboxamide]
5 | 0.01 to 0.03 | > 40 | 750 (≈ 1490 µM) | > 40 | – | COc1ccc(-n2cc(C)nn2)c(CNC(=O)c2cn(Cc3ccc4c(c3)CN(C)CC4)c(C)n2)c1F [Example 151, N-{[2-fluoro-3-methoxy-6-(4-methyl-1,2,3-triazol-1-yl)phenyl]methyl}-2-methyl-1-[(2-methyl-3,4-dihydro-1H-isoquinolin-7-yl)methyl]imidazole-4-carboxamide]
6 | < 0.01 | > 40 | > 1000 | > 40 | – | COCc1nn(Cc2ccc3c(c2)CCN(C)C3)cc1C(=O)NCc1c(-n2cc(C(F)F)nn2)ccc(OC)c1F [Example 34, N-({6-[4-(difluoromethyl)-1,2,3-triazol-1-yl]-2-fluoro-3-methoxyphenyl}methyl)-3-(methoxymethyl)-1-[(2-methyl-3,4-dihydro-1H-isoquinolin-6-yl)methyl]pyrazole-4-carboxamide]
7 | < 0.01 | > 40 | 960 (≈ 1720 µM) | 33.9 | – | CCN1CCc2ccc(Cn3cc(C(=O)NCc4c(-n5ccc(C#N)n5)ccc(OC)c4F)c(COC)n3)cc2C1 [Example 27, N-{[6-(3-cyanopyrazol-1-yl)-2-fluoro-3-methoxyphenyl]methyl}-1-[(2-ethyl-3,4-dihydro-1H-isoquinolin-7-yl)methyl]-3-(methoxymethyl)pyrazole-4-carboxamide]
8 | – | – | – | – | 960 | [2H]C([2H])([2H])N1CCc2ccc(Cn3cc(C(=O)NCc4c(-n5cc(C)nn5)ccc(OC)c4F)c(COC)n3)cc2C1 [Example 119, N-{[2-fluoro-3-methoxy-6-(4-methyl-1,2,3-triazol-1-yl)phenyl]methyl}-3-(methoxymethyl)-1-{[2-(^2H3)methyl-3,4-dihydro-1H-isoquinolin-7-yl]methyl}pyrazole-4-carboxamide]
9 | < 0.01 | > 40 | 920 (≈ 1610 µM) | 39.6 | – | COCc1nn(Cc2ccc3c(c2)CN(C(C)C)CC3)cc1C(=O)NCc1c(-n2cc(C#N)cn2)ccc(OC)c1F [Example 30, N-{[6-(4-cyanopyrazol-1-yl)-2-fluoro-3-methoxyphenyl]methyl}-1-[(2-isopropyl-3,4-dihydro-1H-isoquinolin-7-yl)methyl]-3-(methoxymethyl)pyrazole-4-carboxamide]
10 | < 0.01 | > 40 | 170 (≈ 325 µM) | – | – | COCc1nn(Cc2cnc(N3CCCC3)nc2)cc1C(=O)NCc1c(-n2cnnn2)ccc(OC)c1F [RC4, N-{[2-fluoro-3-methoxy-6-(1,2,3,4-tetrazol-1-yl)phenyl]methyl}-3-(methoxymethyl)-1-{[2-(pyrrolidin-1-yl)pyrimidin-5-yl]methyl}pyrazole-4-carboxamide, reference compound]
11 | 0.01 to 0.03 | – | 560 (≈ 995 µM) | – | – | COCc1nn(Cc2cnc3c(c2)CN(C(C)C)CC3)cc1C(=O)NCc1c(-n2cc(C)nn2)ccc(OC)c1F [Example 132, N-{[2-fluoro-3-methoxy-6-(4-methyl-1H-1,2,3-triazol-1-yl)phenyl]methyl}-3-(methoxymethyl)-1-{[6-(propan-2-yl)-5,6,7,8-tetrahydro-1,6-naphthyridin-3-yl]methyl}-1H-pyrazole-4-carboxamide]
12 | 0.1 to 1 | – | 40 (≈ 77.6 µM) | – | – | COCc1nn(Cc2ccc3ccncc3c2)cc1C(=O)NCc1c(-n2cc(C)nn2)ccc(OC)c1F [RC1, N-{[2-fluoro-3-methoxy-6-(4-methyl-1,2,3-triazol-1-yl)phenyl]methyl}-1-(isoquinolin-7-ylmethyl)-3-(methoxymethyl)pyrazole-4-carboxamide, reference compound]
13 | – | – | 100 (≈ 187 µM) | – | – | COCc1nn(Cc2cnc(N3CCCC3)nc2)cc1C(=O)NCc1c(-n2cc(C)nn2)ccc(OC)c1F [RC6, N-{[2-fluoro-3-methoxy-6-(4-methyl-1,2,3-triazol-1-yl)phenyl]methyl}-3-(methoxymethyl)-1-{[2-(pyrrolidin-1-yl)pyrimidin-5-yl]methyl}pyrazole-4-carboxamide, reference compound]
14 | < 0.01 | > 40 | – | 23.1 | – | COCc1nn(Cc2ccc3c(c2)CN(C)CC3(F)F)cc1C(=O)NCc1c(-n2cc(C)nn2)ccc(OC)c1F [Example 106, 1-[(4,4-difluoro-2-methyl-1,3-dihydroisoquinolin-7-yl)methyl]-N-{[2-fluoro-3-methoxy-6-(4-methyl-1,2,3-triazol-1-yl)phenyl]methyl}-3-(methoxymethyl)pyrazole-4-carboxamide]
15 | < 0.01 | > 40 | – | 18.2 | – | COc1ccc(-n2cc(C)nn2)c(CNC(=O)c2cn(Cc3cc4n(n3)C3(CC3)CN(C)C4)nc2C(F)F)c1F [Example 82]
16 | < 0.01 | > 40 | – | > 40 | – | COCc1nn(Cc2ccc3c(c2)CCN(C)CC3)cc1C(=O)NCc1c(-n2cnc(C(F)(F)F)n2)ccc(OC)c1F [Example 158, N-({2-fluoro-3-methoxy-6-[3-(trifluoromethyl)-1,2,4-triazol-1-yl]phenyl}methyl)-3-(methoxymethyl)-1-[(3-methyl-1,2,4,5-tetrahydro-3-benzazepin-7-yl)methyl]pyrazole-4-carboxamide]
17 | < 0.01 | > 40 | – | > 40 | – | COCc1nn(Cc2ccc3c(c2)C2CCCN2CC3)cc1C(=O)NCc1c(-n2cc(C)nn2)ccc(OC)c1F (centres unmarked) [Example 120, 1-{1H,2H,3H,5H,6H,10bH-pyrrolo[2,1-a]isoquinolin-9-ylmethyl}-N-{[2-fluoro-3-methoxy-6-(4-methyl-1,2,3-triazol-1-yl)phenyl]methyl}-3-(methoxymethyl)pyrazole-4-carboxamide]
18 | < 0.01 | > 40 | – | 17 | – | COCc1nn(Cc2ccc3c(c2)CN(C)C3)cc1C(=O)NCc1c(-n2cnc(C(F)(F)F)n2)ccc(OC)c1F [Example 58, N-({2-fluoro-3-methoxy-6-[3-(trifluoromethyl)-1,2,4-triazol-1-yl]phenyl}methyl)-3-(methoxymethyl)-1-[(2-methyl-1,3-dihydroisoindol-5-yl)methyl]pyrazole-4-carboxamide]
19 | < 0.01 | > 40 | – | > 40 | – | CCN1CCc2ccc(Cn3cc(C(=O)NCc4c(-n5cc(C)nn5)ccc(OC)c4F)c(COC)n3)cc2C1 [Example 16, 1-[(2-ethyl-3,4-dihydro-1H-isoquinolin-7-yl)methyl]-N-{[2-fluoro-3-methoxy-6-(4-methyl-1,2,3-triazol-1-yl)phenyl]methyl}-3-(methoxymethyl)pyrazole-4-carboxamide]
20 | 0.1 to 1 | > 40 | – | > 40 | – | COCc1nn(Cc2nc3c(s2)CN(C)CC3)cc1C(=O)NCc1c(-n2cc(C)nn2)ccc(OC)c1F [Example 109, N-{[2-fluoro-3-methoxy-6-(4-methyl-1,2,3-triazol-1-yl)phenyl]methyl}-3-(methoxymethyl)-1-({5-methyl-4H,6H,7H-[1,3]thiazolo[5,4-c]pyridin-2-yl}methyl)pyrazole-4-carboxamide]

Source: patent US11613527B2, “Enzyme inhibitors” (KalVista Pharmaceuticals Limited, priority 2019, dated 2023)
